Test results as given in US10941157B2, “Pesticidal compositions and uses thereof” (Gilead Apollo, LLC, priority 2015, dated 2021).
Converted amounts (≈) assume the structure as drawn. Like-named read-outs stand apart in the source and are kept apart here.

Experiments:
[1] = test system: Sphaerotheca fuliginea; experiment: Foliar protection for cucumber powdery mildew control; assay type: in vivo; conditions: foliar spray on Cucumis sativus cv. Straight Eight, inoculated 24 hours after treatment, evaluated 7 days later
How it was run: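 Cucumber plants (cv. Straight Eight, 10 days old) sprayed to wetness on both leaf surfaces, then inoculated 24 h later by shaking sporulating stock plants over them. Held at 23–27 °C, 16 h light, 60% RH. Mildew colonization scored 7 days after inoculation, at compound concentrations of 10 ppm or lower.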

[2] = test system: Mycosphaerella graminicola (synthetic Septoria tritici); experiment: Foliar protection test for wheat septoria leaf blotch control; assay type: in vivo; conditions: foliar spray on Triticum aestivum cv. WinterHawk, inoculated 1 hour after treatment, evaluated 16 days later
[3] = test system: Blumeria graminis f. sp. hordei; experiment: Early foliar disease control via seed treatment (barley powdery mildew); assay type: in vivo; conditions: seed treatment rate 0.025 mg/seed; barley inoculated 7 days after planting, evaluated 7 days later
Description: Barley seeds (Hordeum vulgare cv. Perry or Conlon) were treated with a test compound dissolved in pure acetone, in which the acetone solution (1 mL) was used per 50 seeds in glass jars in a fume hood. The seeds were swirled in the glass jars by hand until no obvious presence of acetone remained and the seeds were mostly dry. Plants were grown for 7 days in 2-inch square pots containing Metromix 200 medium amended with fertilizer. […] After inoculation with the pathogen of Blumeria graminis f. sp. hordei, plants were kept at conditions of 20 to 22° C., 200 uM of light, 70% humidity to facilitate infection and disease development. At 7 days after planting (1st true leaf fully expanded), the plants were moved to the cooler chamber and inoculated by shaking well-colonized, untreated stock plants above the treated material. […] Efficacy was evaluated in 7 days later by examining leaves for colonization and growth of powdery mildew. Each side of each leaf was assigned a severity rating of 0, 1, 5, 10, 25, 50, 75, or 100 percent diseased area. Table 14 lists the results of barley powdery mildew control upon seed treatment with test compounds.

[4] = test system: Phakopsora pachyrhizi; experiment: Foliar protection test for Asian soybean rust control; assay type: in vivo; conditions: foliar application to soybean (Glycine max AG4832), percent disease area evaluated 14 days later
[5] = test system: Collectotrichum graminicola (Cg); experiment: In vitro pathogen growth inhibition assay, Cg; assay type: cell-based; conditions: 48 h
How it was run: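 Spores in 17% V8 liquid medium, or 1.5 mm Rs mycelial plugs in ¼ PDB, incubated with compound; final concentration checked by OD600 for precipitation. OD readings at 24 and 48 h, blank-subtracted, plus visual ratings; value is concentration giving ≥90% growth inhibition.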

[6] = ≥90% growth inhibition, 48 hours, vs 2% DMSO control, read-out: Compound Concentration (ppm) sufficient for ≥90% inhibition of Cg

Row | Compound | Cucumber Powdery Mildew Control at a compound concentration of 10 ppm or lower [1] | Septoria Leaf Blotch Control at a compound concentration of 25 ppm or lower [2] | Barley Powdery Mildew Reduction (%) [3] [%] | Asian Soybean Rust Control at a compound concentration of 25 ppm or lower [4] | IC90 [5, 6] [µg/mL] | IC90 ([5]; ≥90% inhibition, 48 hours vs 2% DMSO control, read-out: Compound Concentration (ppm) sufficient for ≥90% inhibition of growth, Cg) [µg/mL]
1 | COc1ccc(F)cc1[C@H](Cn1c(=O)n(C(C)(C)C(=O)NC(C)C)c(=O)c2c(C)c(-n3cccn3)sc21)OCCC#N [Compound I-191, (R)-2-(1-(2-(2-cyanoethoxy)-2-(5-fluoro-2-methoxyphenyl)ethyl)-5-methyl-2,4-dioxo-6-(1H-pyrazol-1-yl)-1,4-dihydrothieno[2,3-d]pyrimidin-3 (2H)-yl)-N-isopropyl-2-methylpropanamide] | AA (≥85% control of cucumber powdery mildew) | AA (≥85% control of wheat septoria leaf blotch) | 94 | A (from 70% to 84% control of Asian soybean rust) | ≥ 0.4 | –
2 | COc1ccc(F)cc1[C@H](Cn1c(=O)n(C(C)(C)C(=O)NC(C)C)c(=O)c2c(C)c(-n3nccn3)sc21)OCCC#N [Compound I-095, (R)-2-(1-(2-(2-cyanoethoxy)-2-(5-fluoro-2-methoxyphenyl)ethyl)-5-methyl-2,4-dioxo-6-(2H-1,2,3-triazol-2-yl)-1,4-dihydrothieno[2,3-d]pyrimidin-3 (2H)-yl)-N-isopropyl-2-methylpropanamide] | AA (≥85% control of cucumber powdery mildew) | AA (≥85% control of wheat septoria leaf blotch) | – | AA (≥85% control of Asian soybean rust) | – | 0.08 (≈ 0.134 µM)
3 | COc1ccccc1[C@H](Cn1c(=O)n(C(C)(C)C(=O)NC(C)C)c(=O)c2c(C)c(-n3nccn3)sc21)OCCC#N [Compound I-193, (R)-2-(1-(2-(2-cyanoethoxy)-2-(2-methoxyphenyl)ethyl)-5-methyl-2,4-dioxo-6-(2H-1,2,3-triazol-2-yl)-1,4-dihydrothieno[2,3-d]pyrimidin-3 (2H)-yl)-N-isopropyl-2-methylpropanamide] | AA (≥85% control of cucumber powdery mildew) | AA (≥85% control of wheat septoria leaf blotch) | 96 | AA (≥85% control of Asian soybean rust) | ≥ 0.08 | –
